Measurements as given in PubChem BioAssay AID256 (DTP/NCI, 2004).
Values joined by “and” are separate entries in the source; they are usually repeats but may differ in a detail not shown here. Equal entries are not always repeated. Inconclusive results and toxic doses are left out. How the source made its calls: active means survival T/C of 150% or more; inactive means T/C below 125% in these data.

System: CD2F1 mice, L1210 leukemia ip, survival T/C
Test: NCI In Vivo Anticancer Drug Screen. Data for tumor model L1210 Leukemia (intraperitoneal) in CD2F1 (CDF1) mice
Settings: endpoint: mean survival time, higher = longer survival
Summary of the method: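 Read-out first: treated-group measurement over vehicle-control measurement, expressed as a ratio. Animals bore a transplanted tumor line and were dosed with compound or vehicle.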

[1] = dose: 100.0 mg/kg/injection, schedule: Q01DX009 (ip), vehicle: saline with Tween-80
[2] = dose: 200.0 mg/kg/injection, schedule: Q01DX009 (ip), vehicle: saline with Tween-80
[3] = dose: 400.0 mg/kg/injection, schedule: Q01DX009 (ip), vehicle: saline with Tween-80
[4] = dose: 100.0 mg/kg/injection, schedule: Q01DX001 (ip), vehicle: saline with Tween-80
[5] = dose: 200.0 mg/kg/injection, schedule: Q01DX001 (ip), vehicle: saline with Tween-80
[6] = dose: 400.0 mg/kg/injection, schedule: Q01DX001 (ip), vehicle: saline with Tween-80
[7] = dose: 100.0 mg/kg/injection, schedule: Q04DX003 (ip), vehicle: saline with Tween-80
[8] = dose: 200.0 mg/kg/injection, schedule: Q04DX003 (ip), vehicle: saline with Tween-80
[9] = dose: 400.0 mg/kg/injection, schedule: Q04DX003 (ip), vehicle: saline with Tween-80
[10] = dose: 100.0 mg/kg/injection, schedule: Q01DX001 (ip), vehicle: saline
[11] = dose: 200.0 mg/kg/injection, schedule: Q01DX001 (ip), vehicle: saline
[12] = dose: 400.0 mg/kg/injection, schedule: Q01DX001 (ip), vehicle: saline
[13] = dose: 50.0 mg/kg/injection, schedule: Q01DX009 (ip), vehicle: saline with Tween-80
[14] = dose: 100.0 mg/kg/injection, schedule: Q04DX003 (ip), vehicle: saline
[15] = dose: 200.0 mg/kg/injection, schedule: Q04DX003 (ip), vehicle: saline
[16] = dose: 400.0 mg/kg/injection, schedule: Q04DX003 (ip), vehicle: saline

Measured: T/C

OC1(c2c(F)c(F)c(F)c(F)c2F)C2CCC1CC2 (stereo unspecified)
inactive: dose: 37.5 mg/kg/injection, schedule: Q04DX002 (ip), vehicle: saline with Tween-80 98 % of control | dose: 75.0 mg/kg/injection, schedule: Q04DX002 (ip), vehicle: saline with Tween-80 110 % of control | dose: 150.0 mg/kg/injection, schedule: Q04DX002 (ip), vehicle: saline with Tween-80 98 % of control | dose: 300.0 mg/kg/injection, schedule: Q04DX002 (ip), vehicle: saline with Tween-80 102 % of control

CN(C)CCNC1=C(Cl)C(=O)c2ccccc2C1=O
inactive: dose: 6.25 mg/kg/injection, schedule: Q04DX003 (ip), vehicle: saline with Tween-80 97 % of control | dose: 12.5 mg/kg/injection, schedule: Q04DX003 (ip), vehicle: saline with Tween-80 101 % of control | dose: 25.0 mg/kg/injection, schedule: Q04DX003 (ip), vehicle: saline with Tween-80 91 % of control and 102 % of control

NC(=O)NC1CCCCCCC1
inactive: [1] 102 % of control | [2] 100 % of control | [3] 110 % of control

COc1ccc2cc(OC)c(OC)cc2n1
inactive: [4] 96 % of control | [5] 96 % of control | [6] 98 % of control

C1=CC(=P(c2ccccc2)(c2ccccc2)c2ccccc2)C=C1
inactive: [1] 98 % of control | [7] 94 % of control | [2] 100 % of control | [8] 95 % of control | dose: 240.0 mg/kg/injection, schedule: Q01DX015 (ip), vehicle: saline 87 % of control | [3] 94 % of control | [9] 94 % of control | dose: 480.0 mg/kg/injection, schedule: Q01DX015 (ip), vehicle: saline 87 % of control | dose: 960.0 mg/kg/injection, schedule: Q01DX015 (ip), vehicle: saline 92 % of control

COc1cccc2c1C(=O)c1c(OC)c(C)cc(OC)c1C2=O
inactive: dose: 12.5 mg/kg/injection, schedule: Q01DX009 (ip), vehicle: other 113 % of control | dose: 25.0 mg/kg/injection, schedule: Q01DX009 (ip), vehicle: other 110 % of control | dose: 50.0 mg/kg/injection, schedule: Q01DX009 (ip), vehicle: other 110 % of control | dose: 100.0 mg/kg/injection, schedule: Q01DX009 (ip), vehicle: other 110 % of control | dose: 200.0 mg/kg/injection, schedule: Q01DX009 (ip), vehicle: other 117 % of control

CNC(=O)/C=C/C1=CN2C(=O)c3ccc(C)c(O)c3NC(OC)C2C1 (stereo unspecified)
inactive: dose: 0.01 mg/kg/injection, schedule: Q01DX009 (ip), vehicle: saline 105 % of control and 108 % of control | dose: 0.02 mg/kg/injection, schedule: Q01DX009 (ip), vehicle: saline 95 % of control | dose: 0.03 mg/kg/injection, schedule: Q01DX009 (ip), vehicle: saline 112 % of control | dose: 0.05 mg/kg/injection, schedule: Q01DX009 (ip), vehicle: saline 100 % of control and 106 % of control and 108 % of control | dose: 0.1 mg/kg/injection, schedule: Q01DX009 (ip), vehicle: saline 115 % of control and 102 % of control and 106 % of control | dose: 0.2 mg/kg/injection, schedule: Q01DX009 (ip), vehicle: saline 115 % of control and 100 % of control | dose: 0.4 mg/kg/injection, schedule: Q01DX009 (ip), vehicle: saline 112 % of control

c1ccc2c(-c3nnn4ccccc34)cccc2c1
inactive: [10] 89 % of control | [11] 106 % of control | [12] 97 % of control

CC1(C)C2CCC1(C(=O)O)CC2
inactive: [13] 100 % of control | [1] 100 % of control | [7] 92 % of control | [2] 97 % of control | [8] 95 % of control

Cc1c(F)cccc1[N+](=O)[O-]
inactive: [13] 101 % of control | [1] 104 % of control | [2] 98 % of control

FC(F)(F)COP1(OCC(F)(F)F)=NP(OCC(F)(F)F)(OCC(F)(F)F)=NP(c2ccccc2)(c2ccccc2)=N1
inactive: [14] 102 % of control | [15] 100 % of control | [16] 100 % of control

Nc1nc(N)c(CCCOc2ccc([N+](=O)[O-])cc2Cl)c(N)n1
inactive: dose: 100.0 mg/kg/injection, schedule: Q04DX002 (ip), vehicle: Klucel (hydroxypropylcellulose) (HPC) 90 % of control | dose: 200.0 mg/kg/injection, schedule: Q04DX002 (ip), vehicle: Klucel (hydroxypropylcellulose) (HPC) 94 % of control | dose: 400.0 mg/kg/injection, schedule: Q04DX002 (ip), vehicle: Klucel (hydroxypropylcellulose) (HPC) 90 % of control

NC(CC(=O)NC(=O)OCc1ccccc1)C(=O)O (stereo unspecified)
inactive: [1] 100 % of control | [7] 101 % of control | [2] 102 % of control | [8] 101 % of control | [3] 102 % of control | [9] 98 % of control

OCC1OC(Nc2ncnc3nc[nH]c23)C(O)C1O (stereo unspecified)
inactive: [4] 108 % of control | [1] 96 % of control | [5] 94 % of control | [2] 108 % of control | [6] 92 % of control | [3] 100 % of control

Cc1ccc(-c2noc(C)n2)cc1
inactive: [10] 103 % of control | [11] 105 % of control | [12] 103 % of control

OC(Cc1ccc2ccccc2n1)C(Cl)(Cl)Cl (stereo unspecified)
inactive: dose: 100.0 mg/kg/injection, schedule: Q04DX003 (ip), vehicle: alcohol 95 % of control | dose: 200.0 mg/kg/injection, schedule: Q04DX003 (ip), vehicle: alcohol 95 % of control | dose: 400.0 mg/kg/injection, schedule: Q04DX003 (ip), vehicle: alcohol 101 % of control

C=C(C)Cc1cc(C(CC)C(CC)c2ccc(O)c(CC(=C)C)c2)ccc1O (stereo unspecified)
inactive: [1] 100 % of control | [14] 96 % of control | [2] 98 % of control | [15] 93 % of control | [3] 100 % of control | [16] 89 % of control

C=CCOC(=O)Nc1ccc(S(=O)(=O)N(CCC)CCC)cc1
inactive: [10] 103 % of control | [11] 101 % of control | [12] 89 % of control

CCC(=O)Nc1cc([N+](=O)[O-])cc([N+](=O)[O-])c1
inactive: dose: 100.0 mg/kg/injection, schedule: Q04DX002 (ip), vehicle: saline with Tween-80 105 % of control | dose: 200.0 mg/kg/injection, schedule: Q04DX002 (ip), vehicle: saline with Tween-80 100 % of control

O=S1C2C3CC(C4C=CCC43)C2N1c1ccccc1 (stereo unspecified)
inactive: [4] 92 % of control | [1] 97 % of control | [5] 95 % of control | [2] 97 % of control | [6] 90 % of control | [3] 94 % of control

O=C1C2C(C(=O)N1c1ccc([N+](=O)[O-])cc1)C1c3ccccc3C2C2CCCCN21 (stereo unspecified)
inactive: dose: 100.0 mg/kg/injection, schedule: Q01DX001 (ip), vehicle: Klucel (hydroxypropylcellulose) (HPC) 93 % of control | dose: 200.0 mg/kg/injection, schedule: Q01DX001 (ip), vehicle: Klucel (hydroxypropylcellulose) (HPC) 101 % of control | dose: 400.0 mg/kg/injection, schedule: Q01DX001 (ip), vehicle: Klucel (hydroxypropylcellulose) (HPC) 100 % of control

CN(C)c1ccc(/C=N/Nc2ncnc(Cl)c2N)cc1
inactive: dose: 100.0 mg/kg/injection, schedule: Q01DX001 (ip), vehicle: carboxymethylcellulose (CMC) 98 % of control | dose: 200.0 mg/kg/injection, schedule: Q01DX001 (ip), vehicle: carboxymethylcellulose (CMC) 91 % of control | dose: 400.0 mg/kg/injection, schedule: Q01DX001 (ip), vehicle: carboxymethylcellulose (CMC) 95 % of control

NC(=O)CCC(N)C(=O)O.[Cl-].[Cl-].[Cl-].[Cl-].[Pt+2] (stereo unspecified)
inactive: dose: 12.5 mg/kg/injection, schedule: Q01DX009 (ip), vehicle: water 107 % of control | dose: 25.0 mg/kg/injection, schedule: Q01DX009 (ip), vehicle: water 100 % of control | dose: 25.0 mg/kg/injection, schedule: Q04DX003 (ip), vehicle: saline 111 % of control | dose: 50.0 mg/kg/injection, schedule: Q04DX003 (ip), vehicle: saline 119 % of control

CCN(CC)CCSC(=O)C(O)(c1ccccc1)c1cccc(C)c1 (stereo unspecified)
inactive: dose: 75.0 mg/kg/injection, schedule: Q01DX001 (ip), vehicle: saline 105 % of control

C[n+]1c(/C=C/c2ccccc2Cl)ccc2ccccc21
inactive: dose: 12.5 mg/kg/injection, schedule: Q01DX009 (ip), vehicle: saline with Tween-80 94 % of control | dose: 25.0 mg/kg/injection, schedule: Q01DX009 (ip), vehicle: saline with Tween-80 100 % of control | [13] 96 % of control | dose: 50.0 mg/kg/injection, schedule: Q04DX003 (ip), vehicle: saline with Tween-80 95 % of control
